Assay results taken from the NIST ThermoML archive (doi:10.1021/acs.jced.6b00516).

Assay: wn = mass fraction of the nth substance listed
Settings: 102 kPa, Liquid, Vibrating tube method

CCCCC1CCCCC1 [butylcyclohexane] + CCCCCCCCCCCCCCCC
mass density [kg/m3]
Settings | w1 = 0.1002 | w1 = 0.2 | w1 = 0.3001 | w1 = 0.3998 | w1 = 0.4998 | w1 = 0.6001 | w1 = 0.7 | w1 = 0.7999 | w1 = 0.8998
293.15 K | 775.85 | 778.23 | 780.67 | 783.16 | 785.72 | 788.34 | 791.01 | 793.72 | 796.48
303.15 K | 768.9 | 771.24 | 773.65 | 776.08 | 778.59 | 781.15 | 783.74 | 786.38 | 789.06
313.15 K | 761.94 | 764.25 | 766.6 | 768.99 | 771.43 | 773.92 | 776.44 | 779 | 781.6
323.15 K | 754.99 | 757.24 | 759.55 | 761.87 | 764.25 | 766.67 | 769.12 | 771.6 | 774.12
333.15 K | 748.02 | 750.22 | 752.47 | 754.73 | 757.04 | 759.39 | 761.76 | 764.16 | 766.6
343.15 K | 741.1 | 743.2 | 745.35 | 747.5 | 749.8 | 752.1 | 754.35 | 756.6 | 759
353.15 K | 734.1 | 736.1 | 738.3 | 740.3 | 742.5 | 744.7 | 746.9 | 749.1 | 751.4

CCCCC1CCCCC1 [butylcyclohexane] + Cc1ccccc1
mass density [kg/m3]
Settings | w1 = 0.1002 | w1 = 0.2175 | w1 = 0.3001 | w1 = 0.3999 | w1 = 0.5 | w1 = 0.6001 | w1 = 0.6995 | w1 = 0.8001 | w1 = 0.8996
293.15 K | 858.58 | 849.42 | 843.23 | 835.97 | 829.25 | 822.67 | 816.44 | 810.43 | 804.75
303.15 K | 849.47 | 840.53 | 834.5 | 827.42 | 820.88 | 814.48 | 808.43 | 802.58 | 797.08
313.15 K | 840.29 | 831.58 | 825.72 | 818.82 | 812.46 | 806.25 | 800.37 | 794.7 | 789.37
323.15 K | 831.04 | 822.57 | 816.86 | 810.17 | 803.99 | 797.96 | 792.27 | 786.78 | 781.62
333.15 K | 821.72 | 813.48 | 807.94 | 801.44 | 795.45 | 789.62 | 784.11 | 778.81 | 773.83
343.15 K | 812.2 | 804.3 | 798.8 | 792.6 | 786.8 | 781.3 | 775.9 | 770.7 | 765.9
353.15 K | 802.7 | 795.1 | 789.7 | 783.7 | 778.1 | 772.8 | 767.5 | 762.6 | 758
